Data published in patent publication US20110239327A1, “Nematicidal Effects of Cysteine Proteinases and Methods of Use Thereof to Treat Nematode Infestation” (priority 2007, published 2011).
Entries after “also recorded” stand apart in the source; their conditions may differ.

Experiments:
M. incognita J2 [1] = assay: In vitro assay of M. incognita J2 present in soil mixtures; type: cell-based; settings: Triton x-100 (1%), Milk (5%)
Experimental: The same procedure described above was used to determine the effect of the cysteine proteinases against M. incognita J2 present in soil mixtures. The following soil mixtures were used: fine and coarse sand, peat and fine/coarse sand and loam mix and fine/coarse sand. These soil mixtures were prepared at concentrations of 1:1, 1:3 and 1:6 and autoclaved at […] for 20 min. Peat and loam-mix were obtained from Rothamsted-Research. Soil mixtures were added to 24 well plates (0.5 g) and wetted for 16 hs with either PBS ph 7.2, Tx-100, Milk 5% or cysteine proteinases, in order to wet the soil and block non-specific binding sites present in the soil particles. Then, approximately 100 J2 were added to the wells, followed by cysteine proteinases with 16 mM of L-cysteine to activate the cysteine proteinases or water as control. After 16 hs at room temperature in the dark, individual wells of the 24 well plates were flushed with 1 ml of distilled water to recover the nematodes from the soil mixtures. These were placed in a 24 well plate and the number of dead/live nematodes scored under microscopic observation.
These in vitro experiments were performed in 24 well plates using sterile soil mixtures to diminish the possibility of biological degradation of the enzyme by microorganisms. […] The number of live nematodes was counted before and after enzyme treatment. […]

Meloidogyne spp. J2s = assay: In vitro mobility of Meloidogyne spp. J2s exposed to plant cysteine proteinases; type: cell-based, M. incognita or M. javanica
Experimental: Eggs of M. incognita race 1 from North Carolina State University, USA, and M. javanica from Portugal were collected from the roots of infected tomato plants grown in a glasshouse at 23° C. in a 16:8 h light-dark regime. Eggs were extracted using 1% hypochlorite (NaClO) solution (Hussey and Barker, 1973) or by picking egg masses from the infected roots. M. incognita and M. javanica were both used in the experiments and produced similar results. Juveniles (J2) were hatched from the eggs and egg masses in water. Globodera rostochiensis cysts were washed extensively in distilled water. Hatched J2s were obtained by incubating cysts in distilled water for 4 days followed by exposure to potato root diffusate (PRD).
Approximately 1000 J2s (second juvenile stage) of M. incognita or M. javanica were incubated per well of a 48-well plate with the following active enzyme concentrations (determined by E-64 titration) of papain dissolved in distilled water containing 16 mM L-cysteine (to activate the cysteine proteinase): 1.5 μM, 3 μM, 6.25 μM, 12.5 μM, 25 μM, 50 μM, 75 μM and 100 μM. […] The number of active J2s per well was counted prior to the addition of papain, and then the J2s were incubated in the dark at room temperature for 3 h. The number of mobile J2s per well was counted after 60, 120 and 180 mins. […]

Pratylenchus penetrans = assay: In vitro live/dead count of Pratylenchus penetrans; type: cell-based
Experimental: (§1) Eggs of M. incognita race 1 from North Carolina State University, USA were collected from tomato-infected roots grown in a glasshouse at 23° C. in a 16:8 h light-dark regime. Eggs were extracted using 1% hypochlorite (NaClO) solution (Hussey and Barker, 1973) or by picking egg masses from tomato-infected roots. Juveniles (J2) were hatched from the eggs and egg masses in water. Heterodera glycines eggs were obtained from soil samples stored in Rothamsted-Research. Second stage juveniles (J2) were hatched from the eggs in water after 10 days. Pratylenchus penetrans were a gift from Dr. Deeren Anne-Marie from the Institute for Agricultural and Fisheries Research, Merelbeke, Belgium. The beneficial nematodes Steinernema feltiae and Heterorhabditis megidis were a gift from Dr. Paul Williams from Becker Underwood.
Control wells were set up which contained J2s and distilled water with 16 mM L-cysteine. Each enzyme concentration and the controls were set up in duplicate (i.e. n=2). […] The number of live and dead J2s per well was counted after each enzyme incubation. The same procedure was followed when setting up further experiments to compare the effects of these enzymes with Heterodera glycines J2, Pratylenchus penetrans, Steinernema feltiae and Heterorhabditis megidis.

M. incognita J2 [2] = assay: In planta bioassay, two soil applications: nematode infection of tomato roots; type: in vivo, M. incognita on tomato plants
Experimental: Oxamyl is supplied as 10% liquid Vydate. 125 μl of a solution 1000 fold dilution of 10% formulation (kindly supplied by DK from NIU) was applied to 5 g of the soil mixture with 16% organic matter, to give a partial nematicidal effect. Soil mixtures were wetted with PBS pH 7.2, 16 hrs prior nematode application of 1000 or 2000 M. incognita J2. Infected soil mixtures were treated with water (control) or 250 μM of active papain in 16 mM of L-cysteine or a combination of Vydate and 250 μM of active papain in 16 mM of L-cysteine. After 48 hs tomato seedlings one month old were added to the treated soils. After 11 days the roots were washed free of soil and chopped to approximately 2 mm pieces. The root pieces of each tomato plant was placed in muslin bags and stained with acid-fuchsin. The stained roots were examined under microscope and all the nematodes present in the roots were counted. […] After 48 hours tomato seedlings one month old were added to the treated soils and after 11 days post infection nematode development inside root tissues was assessed as described above.
The avermectins are macrocyclic lactones produced by the actinomycete Streptomyces avermitilis. […] After 48 hs tomato seedlings one month old were added to the treated soils and after 11 days post infection nematode development inside root tissues was assessed as described above. […]

Steinernema feltiae = assay: In vitro effect on the beneficial nematode Steinernema feltiae; type: cell-based
Experimental: as §1
(§2) Control wells were set up which contained J2s and distilled water with 16 mM L-cysteine. Each enzyme concentration and the controls were set up in duplicate (i.e. n=2). The actual number of active J2s per well was counted with the aid of an Olympus inverted microscope, prior to the addition of the enzymes, and then the J2s were incubated in the dark at room temperature for 2 hs, 16 hs, 24 hs or 40 hr. The number of live and dead J2s per well was counted after each enzyme incubation. […]

Heterorhabditis megidis = assay: In vitro effect on the beneficial nematode Heterorhabditis megidis; type: cell-based
Experimental: as §1
Control wells were set up which contained J2s and distilled water with 16 mM L-cysteine. Each enzyme concentration and the controls were set up in duplicate (i.e. n=2). The actual number of active J2s per well was counted with the aid of an Olympus inverted microscope, prior to the addition of the enzymes, and then the J2s were incubated in the dark at room temperature for 2 hs, 16 hs, 24 hs or 40 hr. The number of live and dead J2s per well was counted after each enzyme incubation. The same procedure was followed when setting up further experiments to compare the effects of these enzymes with Heterodera glycines J2, Pratylenchus penetrans, Steinernema feltiae and Heterorhabditis megidis.
The beneficial nematodes Hetorhabditis megidis and Steinernema feltiae were incubated with dilutions of actinidin, bromelain and pappain from papaya latex (see concentrations used in table 3). These nematodes reacted differentially to these cysteine proteinases (Tables 4 and 5). […] S. feltiae were dead at all concentrations of actinidin tested. […] After 16 hs of observation the enzyme solutions were diluted with water (to half of the initial concentrations) however, no change in nematode movement was observed after 24 hs.

M. incognita J2 [3] = assay: In vitro live/dead count of M. incognita J2 in solution without soil (Example 2); type: cell-based
Experimental: as §1, with “Underwood. […]” for “Underwood.”
as §2, with “Each enzyme concentration and the controls were set up in duplicate (i.e. n=2).” left out

larvae in infected soil = settings: cited from earlier work

Triton x-100
effect of blocking agents on nematode mobility (M. incognita J2 [1]): slightly affected nematode mobility

CC(C)C[C@H](NC(=O)[C@H]1O[C@@H]1C(=O)O)C(=O)NCCCCN=C(N)N (relative stereo) [E-64, L-trans-epoxysuccinyl-leucylamido(4-guanidino)butane, reference compound]
proportion of active worms on addition of E-64 (Meloidogyne spp. J2s; 1 mM E-64, J2s incubated without enzyme): No change in the proportion of active worms

stem bromelain
concentration of bromelain that killed the nematodes (Pratylenchus penetrans): 560 µM
recovery of mobility (Pratylenchus penetrans; after 48 hs): no recovery of mobility
reduction of nematode infection of plants (M. incognita J2 [2]; two soil applications of enzyme (250 μM papain, 2.2 μM bromelain, 3.3 mM actinidin as printed), soil 16% organic matter, 11 days): 95%
proportion of active Meloidogyne spp. J2s relative to control (Meloidogyne spp. J2s; 25 μM active enzyme): significant reduction; also recorded: Reductions in the proportion of active worms were evident
bromelain concentrations at which no effect was observed (Steinernema feltiae): below 280 uM
effect on S. feltiae movement (Steinernema feltiae; high concentrations of bromelain): affected S. feltiae movement slightly
nematode motility or behaviour (Heterorhabditis megidis; enzyme concentration A (Table 3): actinidin 3.3 mM, bromelain 2.2 mM, papain 250 uM): All paralysed
nematode motility or behaviour (Heterorhabditis megidis; enzyme concentration B: actinidin 1.7 mM, bromelain 1.1 mM, papain 125 uM): All paralysed
nematode motility or behaviour (Heterorhabditis megidis; enzyme concentration C: actinidin 840 uM, bromelain 560 uM, papain 62.5 uM): All paralysed
effect on H. megidis (Heterorhabditis megidis; higher concentrations): paralysed
effect on H. megidis (Heterorhabditis megidis; lower concentrations): only affected slightly
recovery of movement (M. incognita J2 [3]; after 40 hs of observation, at the nematicidal concentration): not able to recover movement
concentration of active bromelain with nematicidal effect (M. incognita J2 [3]; in solution without soil): 1 mM

Abamectin
nematicidal effect (reduction of nematode infection) (M. incognita J2 [2]; nematicide alone, no enzyme): 94%
larvae development allowed (larvae in infected soil; 300 μl of abamectin solution (100 mg/l) to 50 g of infected soil): 0%
larvae allowed to develop (larvae in infected soil; 2000 (so in the source) of abamectin solution (100 mg/l) to 50 g of infected soil): 75%
